Patent US20250263436A1, “BROAD-SPECTRUM ANTIVIRAL DRUG FOR ENTEROVIRUS, AND APPLICATION” (WUHAN INSTITUTE OF VIROLOGY, CHINESE ACADEMY OF SCIENCES, priority 2020, published 2025)
“And” between values parts separate entries of the source, which are not always exact repeats. Identical values can stand only once.

Assays:
CVA16 = test: Inhibition of CVA16 in RD cells (viral RNA, qRT-PCR); assay type: cell-based; details: anti-CVA16 in RD cells
Experimental: (§1) (1) RD cells were plated in a 24-well plate.
(2) When the cells grew to a confluence of 70%-80%, the DMEM medium containing 10% serum was replaced with a DMEM medium containing 2% serum (the DMEM medium containing 2% serum was added in each well at an amount of 0.5 mL), and 5 μL of CVA16 virus of 1×10^6 PFU/mL was added to each well.
(3) After 1 h, different polypeptides with final concentrations of 0.3125 μM, 0.625 μM, 1.25 μM, 2.5 μM, and 5 μM were added respectively. The group without polypeptide added was used as a control.
(4) The samples were collected 24 h after the infection of CVA16 virus, and RNA was extracted with the total RNA extraction kit.
(§2) (5) The supernatant was discarded, then 350 μL of TRK lysate was added to each well, and the plate was put on a shaker for 5 min.
(§3) (6) 350 μL of 70% ethanol (DEPC) was added to each well, and then the plate was put on a shaker for 5 min.
(§4) (7) The solution in each well was transferred to a RNA extraction column for 1 min of centrifugation at 12000 g.
(§5) (8) The solution obtained in the recovery tube was reloaded on the column again for 1 min of centrifugation at 12000 g.
(§6) (9) RNA washing buffer 1 was added in the column for 30 s of centrifugation at 12000 g. […]
(§7) (14) 2 μL of RNA sample was subjected to a fluorescence quantitative experiment using the one step qRT-PCR kit.

CVB3 = test: Inhibition of CVB3 in RD cells (viral RNA, qRT-PCR); assay type: cell-based; details: inhibiting CVB3 in RD cells
Experimental: as §1
(2) When the cells grew to a confluence of 70%-80%, the DMEM medium containing 10% serum was replaced with a DMEM medium containing 2% serum (the DMEM medium containing 2% serum was added in each well at an amount of 0.5 mL), and 5 μL of CVB3 virus of 1×10^6 PFU/mL was added to each well.
(§8) (3) After 1 h, the polypeptides with final concentrations of 0.3125 μM, 0.625 μM, 1.25 μM, 2.5 μM, and 5 μM were added respectively. The group without polypeptide added was used as a control.
(4) The samples were collected 24 h after the infection of CVB3 virus, and RNA was extracted with the total RNA extraction kit.
as §2, §3, §4, §5, §6
(§9) (14) 2 μL of RNA sample was subjected to a fluorescence quantitative experiment using the one step qRT-PCR kit. […]

EV71 = test: Inhibition of EV71 in Vero cells (viral RNA, qRT-PCR); assay type: cell-based, enterovirus 71 (EV71); details: anti-EV71 in Vero cells
Experimental: (1) Different cells were plated in a 24-well plate.
(2) When the cells grew to a confluence of 70%-80%, the DMEM medium containing 10% serum was replaced with a DMEM medium containing 2% serum (the DMEM medium containing 2% serum was added in each well at an amount of 0.5 mL), and 5 μL of EV71 virus of 1×10^6 PFU/mL was added to each well.
(3) After 1 h, different polypeptides (RQ or control TAT) with final concentrations of 0.3125 μM, 0.625 μM, 1.25 μM, 2.5 μM, and 5 μM were added respectively. The group without polypeptide added was used as a control.
(4) The samples were collected 24 h after the infection of EV71 virus, and RNA was extracted with the total RNA extraction kit.
as §2, §3, §4, §5
(9) RNA washing buffer 1 was added in the column for 30 s of centrifugation at 12000 g.
(10) RNA washing buffer 2 was added in the column for 1 min of centrifugation at 12000 g.
(11) Step (10) was repeated.
(12) The column alone was centrifuged at 12000 g for 2 min to completely remove the residual RNA washing buffer.
(13) 50 μL of DEPC water was added to the column for 2 min of centrifugation at 12000 g.
as §7
(1) Vero E6 cells were plated in a 24-well plate.
(3) After 1 h, different polypeptides (LQ or SQ) with final concentrations of 0.3125 μM, 0.625 μM, 1.25 μM, 2.5 μM, and 5 μM were added respectively. The group without polypeptide added was used as a control.

Echo 11 = test: Inhibition of Echo 11 in RD cells (viral RNA, qRT-PCR); assay type: cell-based; details: inhibiting Echo 11 in RD cells
Experimental: as §1
(2) When the cells grew to a confluence of 70%-80%, the DMEM medium containing 10% serum was replaced with a DMEM medium containing 2% serum (the DMEM medium containing 2% serum was added in each well at an amount of 0.5 mL), and 5 μL of Echo 11 virus of 1×10^6 PFU/mL was added to each well.
as §8
(4) The samples were collected 24 h after the infection of Echo 11 virus, and RNA was extracted with the total RNA extraction kit.
as §2, §3, §4, §5, §6, §9

[1] = Toxicity assay in 293T cells (CCK-8); assay type: cell-based; details: human, 293T cells, read-out: Viability of Huh7 cell (%)
Experimental: (§10) (1) Different cells were plated in a 96-well plate at 100 μL per well.
(§11) (2) When the cells grew to a confluence of 70%-80%, the DMEM medium containing 10% serum was replaced with a DMEM medium containing 2% serum, and a certain concentration gradient of polypeptide RQ was added, so that the final concentrations of the polypeptide in the wells were 0.073242 μM, 0.146484 μM, 0.292969 μM, 0.585938 μM, 1.171875 μM, 2.34375 μM, 4.6875 μM, 9.375 μM, 18.75 μM, 37.5 μM, 75 μM, 150 μM, and 300 μM, respectively.
(§12) (3) The samples were collected 24 h after the addition of the polypeptide, and then 10 μL of live cell detection reagent CCK-8 was added to each well and mixed well.
(§13) (4) The plate was placed at 37° C. for 2 h.
(§14) (5) The absorbance value at OD450 was detected by a microplate reader.

293T cells = test: Toxicity assay in 293T cells (CCK-8); assay type: cell-based; details: 24 h
Experimental: as §10, §11, §12, §13, §14

[2] = Table 15 (third cell line of Example 9), RQ 0.073242 μM

CC[C@H](C)[C@H](NC(=O)[C@H](C)NC(=O)[C@H](CO)NC(=O)[C@H](CCCNC(=N)N)NC(=O)[C@H](CC(N)=O)NC(=O)[C@H](CC(N)=O)NC(=O)[C@H](Cc1ccc(O)cc1)NC(=O)[C@H](CCC(=O)O)NC(=O)[C@H](CCCNC(=N)N)NC(=O)CNC(=O)[C@H](CO)NC(=O)CNC(=O)[C@H](CCCNC(=N)N)NC(=O)[C@H](CCCNC(=N)N)NC(=O)[C@H](CCCNC(=N)N)NC(=O)[C@H](CCC(N)=O)NC(=O)[C@H](CCCNC(=N)N)NC(=O)[C@H](CCCNC(=N)N)NC(=O)[C@H](CCCCN)NC(=O)[C@H](CCCCN)NC(=O)[C@H](CCCNC(=N)N)NC(=O)CNC(=O)[C@@H](N)Cc1ccc(O)cc1)C(=O)NCC(=O)N[C@@H](CC(N)=O)C(=O)N[C@H](C(=O)N[C@H](C(=O)N[C@@H](CCC(=O)O)C(=O)N[C@@H](C)C(=O)N[C@@H](CC(C)C)C(=O)N[C@@H](Cc1ccccc1)C(=O)N[C@@H](CCC(N)=O)C(=O)O)[C@@H](C)CC)[C@@H](C)O [RQ]
IC50 (CVA16): 2160 nM
IC50 (CVB3): 2310 nM
IC50 (EV71): 660 nM
IC50 (Echo 11): 370 nM
Viability of 293T cells at 24 h, 0.073242 µM [1, 2]: 98.4%
Viability of 293T cells at 24 h, 0.146484 µM ([1]; Table 15, RQ 0.146484 μM): 101%
Viability of 293T cells at 24 h, 0.292969 µM ([1]; Table 15, RQ 0.292969 μM): 101%
Viability of 293T cells at 24 h, 0.585938 µM ([1]; Table 15, RQ 0.585938 μM): 100%
Viability of 293T cells at 24 h, 1.17188 µM ([1]; Table 15, RQ 1.171875 μM): 99.7%
Viability of 293T cells at 24 h, 2.34375 µM ([1]; Table 15, RQ 2.34375 μM): 99.1%
Viability of 293T cells at 24 h, 4.6875 µM ([1]; Table 15, RQ 4.6875 μM): 98.6%
Viability of 293T cells at 24 h, 9.375 µM ([1]; Table 15, RQ 9.375 μM): 99.7%
Viability of 293T cells at 24 h, 18.75 µM ([1]; Table 15, RQ 18.75 μM): 100%
Viability of 293T cells at 24 h, 37.5 µM ([1]; Table 15, RQ 37.5 μM): 102%
Viability of 293T cells at 24 h, 75 µM ([1]; Table 15, RQ 75 μM): 102%
Viability of 293T cells at 24 h, 150 µM ([1]; Table 15, RQ 150 μM): 66.6%
Viability of 293T cells (293T cells; [2]): 100.4267% and 97.87%
Viability of 293T cells (293T cells; Table 15, RQ 0.146484 μM): 100.8922% and 100.9503%
Viability of 293T cells (293T cells; Table 15, RQ 0.292969 μM): 102.4631% and 100.8922%
Viability of 293T cells (293T cells; Table 15, RQ 0.585938 μM): 102.8123% and 101.6486%
Viability of 293T cells (293T cells; Table 15, RQ 1.171875 μM): 115.4383% and 103.5687%
Viability of 293T cells (293T cells; Table 15, RQ 2.34375 μM): 100.3685% and 102.8704%
Viability of 293T cells (293T cells; Table 15, RQ 4.6875 μM): 99.96% and 100.0776%
Viability of 293T cells (293T cells; Table 15, RQ 9.375 μM): 99.96% and 94.03%
Viability of 293T cells (293T cells; Table 15, RQ 18.75 μM): 99.9%
Viability of 293T cells (293T cells; Table 15, RQ 37.5 μM): 101.1249% and 102.9286%
Viability of 293T cells (293T cells; Table 15, RQ 75 μM): 98.97% and 99.5%
Viability of 293T cells (293T cells; Table 15, RQ 150 μM): 63.83% and 64.4104%
